# Measured values from publication PMC8286840, “Identifying SARS-CoV-2 antiviral compounds by screening for small molecule inhibitors of Nsp3 papain-like protease” (Biochemical Journal, 2021).
# Structures can show the parent of a compound that is named as a salt. Where two headings read alike, the source gives them in different places.
# Legend:
# [1] = target: T1, SARS-CoV-2 PLpro (nsp3 1564–1878) (Severe acute respiratory syndrome coronavirus 2, UniProt P0DTD1); assay: biochemical; set-up: FRET-quenched peptide (Pro3) cleavage by PLpro, 10 min pre-incubation, slope over 20 min, normalised to no-compound control; conditions: low concentration screen, read-out: % of control remaining
# [2] = target: T1, SARS-CoV-2 PLpro (nsp3 1564–1878); assay: biochemical; set-up: FRET-quenched peptide (Pro3) cleavage by PLpro, 10 min pre-incubation, slope over 20 min, normalised to no-compound control; conditions: high concentration screen, read-out: % of control remaining
structure (smiles),measurement,setting,value
COc1ccc2c(c1)c(CC(=O)N1CCOCC1)c(C)n2C(=O)c1ccc(Cl)cc1 [BML-190],remaining activity at 1.25 µM,[1]; Well no.=4328,97.5%
same,remaining activity at 1.25 µM,[1]; Well no.=8379,96.7%
same,remaining activity at 3.75 µM,[2]; Well no.=4328,92.3%
same,remaining activity at 3.75 µM,[2]; Well no.=8379,97.9%
Nc1nc(N)c2nc(CNc3ccc(C(=O)N[C@@H](CCC(=O)O)C(=O)O)cc3)cnc2n1 [Aminopterin],remaining activity at 1.25 µM,[1]; Well no.=153,101%
same,remaining activity at 3.75 µM,[2]; Well no.=153,104%
CN1[C@@H]2CC[C@H]1CC(O)C2 (stereo partly shown) [Tropine],remaining activity at 1.25 µM,[1]; Well no.=3469,105%
same,remaining activity at 3.75 µM,[2]; Well no.=3469,106%
N#C[C@H]1[C@H](O)[C@@H](CO)O[C@H]1n1ccc(N)nc1=O [CNDAC (hydrochloride)],remaining activity at 1.25 µM,[1]; Well no.=7866,91.6%
same,remaining activity at 3.75 µM,[2]; Well no.=7866,94.8%
Cc1cccn2c(=O)c(/C=C(\C#N)c3nc4ccccc4s3)c(Oc3ccc(F)cc3)nc12 [CCG-63808],remaining activity at 1.25 µM,[1]; Well no.=7037,102%
same,remaining activity at 3.75 µM,[2]; Well no.=7037,101%
CN(Cc1cnc2nc(N)nc(N)c2n1)c1ccc(C(=O)N[C@@H](CCC(=O)O)C(=O)O)cc1 [Methotrexate],remaining activity at 1.25 µM,[1]; Well no.=69,94.1%
same,remaining activity at 1.25 µM,[1]; Well no.=7352,94.4%
same,remaining activity at 3.75 µM,[2]; Well no.=69,95.5%
same,remaining activity at 3.75 µM,[2]; Well no.=7352,97.6%
O=C(O)CC(O)(CC(=O)O)C(=O)O [Citric acid],remaining activity at 1.25 µM,[1]; Well no.=6195,104%
same,remaining activity at 1.25 µM,[1]; Well no.=6298,103%
same,remaining activity at 3.75 µM,[2]; Well no.=6195,103%
same,remaining activity at 3.75 µM,[2]; Well no.=6298,104%
N[C@@H](CCC(=O)N[C@@H](CS)C(=O)NCC(=O)O)C(=O)O [Glutathione],remaining activity at 1.25 µM,[1]; Well no.=4049,99.4%
same,remaining activity at 3.75 µM,[2]; Well no.=4049,100%
N=C(N)NC(=O)c1nc(Cl)c(N)nc1N [Amiloride],remaining activity at 1.25 µM,[1]; Well no.=1709,102%
same,remaining activity at 3.75 µM,[2]; Well no.=1709,99%
N#CC(C#N)=C(N)/C(C#N)=C/c1ccc(O)cc1 [AG 112],remaining activity at 1.25 µM,[1]; Well no.=2609,97%
same,remaining activity at 3.75 µM,[2]; Well no.=2609,91.5%
COc1cc(N)cn[n+]1-c1ccccc1 [Amezinium (methylsulfate)],remaining activity at 1.25 µM,[1]; Well no.=6567,106%
same,remaining activity at 3.75 µM,[2]; Well no.=6567,104%
O=C(O)CCCCCCCCCCCCCCC(=O)O [Hexadecanedioic acid],remaining activity at 1.25 µM,[1]; Well no.=6685,104%
same,remaining activity at 3.75 µM,[2]; Well no.=6685,106%
CNC1C(O)C(NC)C2OC3(O)C(=O)CC(C)OC3OC2C1O (stereo not shown) [Spectinomycin.2HCl],remaining activity at 1.25 µM,[1]; Well no.=1587,101%
same,remaining activity at 3.75 µM,[2]; Well no.=1587,101%
O=c1[nH]c(=O)n([C@H]2C[C@H](O)[C@@H](CO)O2)cc1I [Idoxuridine],remaining activity at 1.25 µM,[1]; Well no.=2218,98.6%
same,remaining activity at 1.25 µM,[1]; Well no.=8851,105%
same,remaining activity at 3.75 µM,[2]; Well no.=2218,102%
same,remaining activity at 3.75 µM,[2]; Well no.=8851,107%
COc1cc2ncnc(Nc3ccc(Oc4ccccc4)cc3)c2cc1OC [Src Kinase Inhibitor I],remaining activity at 1.25 µM,[1]; Well no.=2563,99.2%
same,remaining activity at 3.75 µM,[2]; Well no.=2563,99.3%
c1ccc(CN(Cc2ncc[nH]2)c2ccccc2)cc1 [Antozoline hydrochloride],remaining activity at 1.25 µM,[1]; Well no.=108,101%
same,remaining activity at 3.75 µM,[2]; Well no.=108,103%
CC1(C)CC(=O)c2c(C(F)(F)F)nn(-c3ccc(C(N)=O)c(N[C@H]4CC[C@H](OC(=O)CN)CC4)c3)c2C1 [PF-04929113 (SNX-5422)],remaining activity at 1.25 µM,[1]; Well no.=4637,101%
same,remaining activity at 3.75 µM,[2]; Well no.=4637,105%
CC(F)(F)CN1CCOc2c(nn(-c3ccccc3Cl)c2-c2ccc(Cl)cc2)C1=O [PF-514273],remaining activity at 1.25 µM,[1]; Well no.=5700,97.7%
same,remaining activity at 3.75 µM,[2]; Well no.=5700,96.2%
"O=S(=O)(c1cccc2c(I)cccc12)N1CCCNCC1 [ML-7, Hydrochloride]",remaining activity at 1.25 µM,[1]; Well no.=2491,103%
same,remaining activity at 3.75 µM,[2]; Well no.=2491,103%
COc1cc(/C=C/C(=O)c2ccc(O)cc2O)ccc1O [Homobutein],remaining activity at 1.25 µM,[1]; Well no.=3637,99.6%
same,remaining activity at 3.75 µM,[2]; Well no.=3637,102%
O=C1NCCN1CCN1CCC(c2cn(-c3ccc(F)cc3)c3ccc(Cl)cc23)CC1 [Sertindole],remaining activity at 1.25 µM,[1]; Well no.=5420,98.4%
same,remaining activity at 1.25 µM,[1]; Well no.=6604,93.4%
same,remaining activity at 3.75 µM,[2]; Well no.=5420,102%
same,remaining activity at 3.75 µM,[2]; Well no.=6604,96.1%
CC[C@H]1OC(=O)[C@H](C)[C@@H](O[C@H]2C[C@@](C)(OC)[C@@H](O)[C@H](C)O2)[C@H](C)[C@@H](O[C@@H]2O[C@H](C)C[C@H](N(C)C)[C@H]2O)[C@](C)(O)C[C@@H](C)CN(C)[C@H](C)[C@@H](O)[C@]1(C)O [Azithromycin],remaining activity at 1.25 µM,[1]; Well no.=2167,97.4%
same,remaining activity at 3.75 µM,[2]; Well no.=2167,102%
NC(CP(=O)(O)O)C(=O)O (racemic),remaining activity at 1.25 µM,[1]; Well no.=303,99.2%
same,remaining activity at 3.75 µM,[2]; Well no.=303,100%
NCC(=O)O [Glycine],remaining activity at 1.25 µM,[1]; Well no.=7699,106%
same,remaining activity at 3.75 µM,[2]; Well no.=7699,108%
COC(=O)[C@H](c1ccccc1Cl)N1CCC2SC(=O)C=C2C1 (stereo partly shown) [Clopidogrel thiolactone],remaining activity at 1.25 µM,[1]; Well no.=8562,95.8%
same,remaining activity at 3.75 µM,[2]; Well no.=8562,95.5%
C=CC(=O)N1CCC[C@@H](n2nc(-c3ccc(Oc4ccccc4)cc3)c3c(N)ncnc32)C1 [PCI-32765 (Ibrutinib)],remaining activity at 1.25 µM,[1]; Well no.=4649,96%
same,remaining activity at 3.75 µM,[2]; Well no.=4649,88.8%
CCC(=O)O[C@@H](O[P@](=O)(CCCCc1ccccc1)CC(=O)N1C[C@H](C2CCCCC2)C[C@H]1C(=O)O)C(C)C [Fosinopril],remaining activity at 1.25 µM,[1]; Well no.=1904,89.9%
same,remaining activity at 3.75 µM,[2]; Well no.=1904,89.1%
NC(Cc1ccc(O)c(O)c1)C(=O)O (racemic) [DL-Dopa],remaining activity at 1.25 µM,[1]; Well no.=6391,106%
same,remaining activity at 3.75 µM,[2]; Well no.=6391,107%
CCCC(CCC)C(=O)O [Divalproex sodium],remaining activity at 1.25 µM,[1]; Well no.=5341,97.2%
same,remaining activity at 3.75 µM,[2]; Well no.=5341,95.4%
"O=S(=O)(NCCNC/C=C/c1ccc(Br)cc1)c1cccc2cnccc12 [H-89, Dihydrochloride]",remaining activity at 1.25 µM,[1]; Well no.=2610,88.8%
same,remaining activity at 3.75 µM,[2]; Well no.=2610,86.3%
CO[C@@H](C[C@@H]1CC[C@@H](C)[C@](O)(C(=O)C(=O)N2CCCC[C@H]2C(=O)O)O1)/C(C)=C/C=C/C=C/[C@@H](C)C[C@@H](C)C(=O)[C@H](OC)[C@H](O)/C(C)=C/[C@@H](C)C(=O)/C=C/[C@H](C)C[C@@H]1CC[C@@H](O)[C@H](OC)C1 [Seco Rapamycin (sodium salt)],remaining activity at 1.25 µM,[1]; Well no.=7642,97.4%
same,remaining activity at 3.75 µM,[2]; Well no.=7642,95.9%
C[C@H](Cc1cc2c(c(C(N)=O)c1)N(CCCO)CC2)NCCOc1ccccc1OCC(F)(F)F [Silodosin],remaining activity at 1.25 µM,[1]; Well no.=6759,101%
same,remaining activity at 3.75 µM,[2]; Well no.=6759,102%
Cc1cccc(Cc2c[nH]cn2)c1C [Detomidine HCl],remaining activity at 1.25 µM,[1]; Well no.=5062,103%
same,remaining activity at 3.75 µM,[2]; Well no.=5062,105%
